Assay results as given in US9206188B2, “Substituted pyrrolo[2,3-b]pyridines as ITK and JAK inhibitors” (Arrien Pharmaceuticals LLC, priority 2013, dated 2015).
Like-named read-outs stand apart in the source and are kept apart here.

Experiments:
[1] = biological target: JAK3 (Homo sapiens (Human), UniProt P52333); test: JAK3 kinase assay (radiometric filter binding, 10 μM ATP); format: biochemical; conditions: read-out: JAK3 kinase inhibition
Experimental: (§1) All additions were done on ice, followed by the addition of ATP mix. Wells were uniformly mixed using an Eppendorff plate shaker and incubated at 30° C. for 20 min, and stopped by the addition of 5 μL of 3% phosphoric acid. Volume was increased to 100 μL by adding 0.8% phosphoric acid which was then transferred to PC filter mats (Millipore), pre-equilibrated with 70% ethanol and water. Plates were washed thrice with 100 μL 0.8% phosphoric acid and dried for an hour at 60° C. 100 μL scintillation fluid was added into each well and reading taken in Perkin Elmer TOPCOUNT beta counter.
(§2) The reactions were carried out at 10 μM ATP for ITK, JAK3 and other TEC and Janus family of kinase.

[2] = biological target: ITK (Homo sapiens (Human), UniProt Q08881); test: ITK kinase assay (radiometric filter binding, 10 μM ATP); format: biochemical; conditions: read-out: ITK kinase inhibition
Experimental: as §1, §2

Chain of JAK3 (P52333 whole entry): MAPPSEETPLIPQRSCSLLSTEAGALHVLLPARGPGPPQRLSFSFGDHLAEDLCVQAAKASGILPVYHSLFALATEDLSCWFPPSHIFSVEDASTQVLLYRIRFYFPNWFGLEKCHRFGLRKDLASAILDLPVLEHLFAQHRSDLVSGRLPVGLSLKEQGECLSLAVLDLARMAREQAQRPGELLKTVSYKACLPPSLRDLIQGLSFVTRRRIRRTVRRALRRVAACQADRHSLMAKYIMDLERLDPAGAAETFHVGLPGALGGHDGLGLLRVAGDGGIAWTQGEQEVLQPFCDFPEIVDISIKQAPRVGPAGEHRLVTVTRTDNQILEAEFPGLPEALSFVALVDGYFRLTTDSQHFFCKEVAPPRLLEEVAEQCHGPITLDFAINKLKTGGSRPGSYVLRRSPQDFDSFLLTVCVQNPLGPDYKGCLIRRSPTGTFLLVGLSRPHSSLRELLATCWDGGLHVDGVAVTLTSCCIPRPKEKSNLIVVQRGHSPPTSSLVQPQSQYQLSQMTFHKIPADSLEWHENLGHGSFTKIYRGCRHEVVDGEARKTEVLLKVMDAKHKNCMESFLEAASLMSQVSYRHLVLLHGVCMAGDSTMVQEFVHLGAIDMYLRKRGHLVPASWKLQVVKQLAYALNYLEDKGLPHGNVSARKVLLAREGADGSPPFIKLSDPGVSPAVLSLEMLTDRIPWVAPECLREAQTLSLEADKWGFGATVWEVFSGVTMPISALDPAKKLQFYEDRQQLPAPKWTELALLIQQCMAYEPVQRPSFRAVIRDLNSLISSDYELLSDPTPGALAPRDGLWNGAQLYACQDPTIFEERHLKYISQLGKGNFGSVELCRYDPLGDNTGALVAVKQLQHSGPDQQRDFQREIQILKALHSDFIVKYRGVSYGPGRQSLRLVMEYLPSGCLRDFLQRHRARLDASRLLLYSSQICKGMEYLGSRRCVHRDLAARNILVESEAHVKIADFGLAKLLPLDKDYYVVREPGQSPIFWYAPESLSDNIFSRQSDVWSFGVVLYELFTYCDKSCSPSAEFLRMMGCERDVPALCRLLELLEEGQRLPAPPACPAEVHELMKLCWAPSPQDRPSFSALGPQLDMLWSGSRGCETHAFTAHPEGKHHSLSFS
Chain of ITK (Q08881 whole entry): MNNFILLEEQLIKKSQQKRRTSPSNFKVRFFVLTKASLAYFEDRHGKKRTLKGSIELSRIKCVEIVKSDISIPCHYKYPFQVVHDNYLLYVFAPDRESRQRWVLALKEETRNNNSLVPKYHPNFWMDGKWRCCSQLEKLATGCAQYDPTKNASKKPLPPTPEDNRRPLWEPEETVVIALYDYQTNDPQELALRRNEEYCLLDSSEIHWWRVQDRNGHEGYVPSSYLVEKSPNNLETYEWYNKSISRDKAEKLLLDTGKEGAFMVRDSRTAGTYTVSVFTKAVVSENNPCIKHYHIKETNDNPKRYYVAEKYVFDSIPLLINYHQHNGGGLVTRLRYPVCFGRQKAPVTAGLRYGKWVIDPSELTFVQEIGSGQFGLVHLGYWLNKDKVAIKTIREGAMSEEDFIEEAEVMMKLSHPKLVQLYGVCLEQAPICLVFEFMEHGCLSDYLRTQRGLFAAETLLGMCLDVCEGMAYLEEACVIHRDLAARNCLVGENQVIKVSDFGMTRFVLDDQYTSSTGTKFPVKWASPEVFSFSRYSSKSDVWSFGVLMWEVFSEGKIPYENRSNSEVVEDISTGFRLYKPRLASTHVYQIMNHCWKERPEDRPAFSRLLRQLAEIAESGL

IC50 ([1]; 10-dose IC50 mode, 10 μM ATP) | IC50 ([2]; 10-dose IC50 mode, 10 μM ATP) | Molecule | IC50 [1] | IC50 [2]
< 100 nM | < 100 nM | C#CC(=O)Nc1cc(-c2cnc3[nH]cc(C)c3c2)ccc1F [Example 92, N-(2-fluoro-5-(3-methyl-1H-pyrrolo[2,3-b]pyridin-5-yl)phenyl)propiolamide] |  | 
> 100 nM | > 100 nM | COc1cc(F)c(C)cc1-c1c[nH]c2ncc(-c3cccc(NC(=O)/C=C/CN(C)C)c3)cc12 [Example 138, (E)-4-(dimethylamino)-N-(3-(3-(4-fluoro-2-methoxy-5-methylphenyl)-1H-pyrrolo[2,3-b]pyridin-5-yl)phenyl)but-2-enamide] |  | 
 |  | (E)-N-(3-(3-methyl-1H- pyrazolo[3,4-b]pyridin-5- yl)phenyl)acrylamide [Example 51] | > 100 nM | > 100 nM
> 100 nM | > 100 nM | C=CC(=O)Nc1cccc(-c2cnc3[nH]cc(-c4cc(F)cc(F)c4OC)c3c2)n1 [Example 42, N-(6-(3-(3,5-difluoro-2-methoxyphenyl)-1H-pyrrolo[2,3-b]pyridin-5-yl)pyridin-2-yl)acrylamide] |  | 
< 100 nM | > 1000 nM | CCC#CC(=O)Nc1cc(-c2cnc3[nH]ccc3c2)ccc1F [Example 85, N-(2-fluoro-5-(1H-pyrrolo[2,3-b]pyridin-5-yl)phenyl)pent-2-ynamide] |  | 
< 100 nM | < 100 nM | C=CC(=O)Nc1cccc(-c2cnc3[nH]cc(-c4cc(F)cc(F)c4OC)c3c2)c1 [Example 30, N-(3-(3-(3,5-difluoro-2-methoxyphenyl)-1H-pyrrolo[2,3-b]pyridin-5-yl)phenyl)acrylamide] |  | 
< 100 nM | < 100 nM | CCC#CC(=O)Nc1cccc(-c2cnc3[nH]ccc3c2)n1 [Example 78, N-(6-(1H-pyrrolo[2,3-b]pyridin-5-yl)pyridin-2-yl)pent-2-ynamide] |  | 
< 100 nM | > 100 nM | C#CC(=O)Nc1cccc(-c2cnc3[nH]cc(C)c3c2)c1 [Example 70, N-(3-(3-methyl-1H-pyrrolo[2,3-b]pyridin-5-yl)phenyl)propiolamide] |  | 
> 100 nM | > 1000 nM | C=CC(=O)Nc1cccc(-c2cnc3[nH]cc(-c4cc(C)c(F)cc4OC)c3c2)c1 [Example 140, N-(3-(3-(4-fluoro-2-methoxy-5-methylphenyl)-1H-pyrrolo[2,3-b]pyridin-5-yl)phenyl)acrylamide] |  | 
> 100 nM | > 1000 nM | C=CC(=O)Nc1ccc(-c2cnc3[nH]ccc3c2)cc1F [Example 61, N-(2-fluoro-4-(1H-pyrrolo[2,3-b]pyridin-5-yl)phenyl)acrylamide] |  | 
> 1000 nM | > 1000 nM | C=CC(=O)Nc1ccccc1-c1cnc2[nH]cc(C)c2c1 [Example 17, N-(2-(3-methyl-1H-pyrrolo[2,3-b]pyridin-5-yl)phenyl)acrylamide] |  | 
< 100 nM | < 100 nM | COc1c(F)cc(F)cc1-c1c[nH]c2ncc(-c3cc(F)cc(NC(=O)/C(C)=C/C(C)(C)C)c3C)cc12 [Example 170, (E)-N-(3-(3-(3,5-difluoro-2-methoxyphenyl)-1H-pyrrolo[2,3-b]pyridin-5-yl)-5-fluoro-2-methylphenyl)-2,4,4-trimethylpent-2-enamide] |  | 
< 100 nM | < 100 nM | CC#CC(=O)Nc1cccc(-c2cnc3[nH]cc(C)c3c2)n1 [Example 91, N-(6-(3-methyl-1H-pyrrolo[1,3-b]pyridin-5-yl)pyridin-2-yl)but-2-ynamide] |  | 
< 100 nM | < 100 nM | CC#CC(=O)Nc1cccc(-c2cnc3[nH]cc(Cl)c3c2)n1 [Example 82, N-(6-(3-chloro-1H-pyrrolo[2,3-b]pyridin-5-yl)pyridin-2-yl)but-2-ynamide] |  | 

Molecule | IC50 ([1]; 10-dose IC50 mode, 10 μM ATP) | IC50 ([2]; 10-dose IC50 mode, 10 μM ATP) | IC50 [1] | IC50 [2]
C=CC(=O)Nc1ccc(-c2cnc3[nH]cc(Cl)c3c2)cc1F [Example 62, -(4-(3-chloro-1H-pyrrolo[2,3-b]pyridin-5-yl)-2-fluorophenyl)acrylamide] | > 100 nM | > 1000 nM |  | 
Cc1c[nH]c2ncc(-c3cccc(NC(=O)CF)c3)cc12 [Example 25, 2-fluoro-N-(3-(3-methyl-1H-pyrrolo[2,3-b]pyridin-5-yl)phenyl)acetamide] | < 100 nM | > 1000 nM |  | 
